The values that follow come from PubChem BioAssay (NCI).

Several values for one entry are separate records, joined by “and”; a condition that tells them apart may be missing. Identical values can stand only once.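 Growth conditions: 96-well plates. Treatment: test compound, 48 hours, 5 concentrations. Analysis: linear interpolation between bracketing concentrations; unreached endpoints set to highest concentration. At the GI50, growth is halved. TGI marks complete inhibition of growth.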 A value given as a limit tells only on which side of the number the result lay.

Test systems include SR leukemia; ACHN renal; BT-549 breast; SNB-19 CNS; IGROV1 ovarian; 786-0 renal; NCI/ADR-RES ovarian; DU-145 prostate.
Common to all, as to experiment: NCI tumour cell line growth inhibition, 48 h

Regarding `CCN(CC)CCOc1nc2cc(OC)c(OC)cc2c2c1-c1ccc(OC)cc1C2=O`, the GI50 is 0.583 µM with SR leukemia; 11.5 µM in the assay on ACHN renal; 15.7 µM in the assay on BT-549 breast; 10.5 µM in the assay on SNB-19 CNS; 5.65 µM with IGROV1 ovarian; 15.7 µM with 786-0 renal. In addition, the GI50 in the assay with NCI/ADR-RES ovarian was 13.2 µM; in the assay on DU-145 prostate it was 5.56 µM. Besides, the TGI in the assay on SR leukemia was 3.4 µM; with ACHN renal, 23.8 µM; with BT-549 breast, 29.5 µM; in the assay with SNB-19 CNS, 23.7 µM; in the assay with IGROV1 ovarian it was 20.6 µM; in the assay on 786-0 renal it was 30.3 µM. Moreover, the values for the TGI in the assay with NCI/ADR-RES ovarian and in the assay on DU-145 prostate were 29.8 µM and 18.3 µM, respectively.

On to `CC[C@H](C)[C@H](NC(=O)c1nccn1C)C(=O)N(C)[C@H](C[C@@H](OC(C)=O)c1nc(C(=O)N[C@@H](Cc2ccccc2)C[C@H](C)C(=O)OC)cs1)C(C)C`, for which the GI50 in the assay on SR leukemia is 0.179 µM; with ACHN renal, 2.06 µM; with BT-549 breast, 0.398 µM; with SNB-19 CNS, 1.28 µM; in the assay on IGROV1 ovarian, 0.704 µM; in the assay on 786-0 renal, 1.17 µM. Besides, the GI50 in the assay with NCI/ADR-RES ovarian was 3.18 µM; with DU-145 prostate it was 1.3 µM. Also, the TGI with SR leukemia was above 33.3 µM; with ACHN renal it was above 33.3 µM; in the assay on BT-549 breast, 3.94 µM; in the assay on SNB-19 CNS, above 33.3 µM; in the assay with IGROV1 ovarian, above 33.3 µM; in the assay with 786-0 renal, 14.5 µM. Besides, the TGI in the assay with NCI/ADR-RES ovarian and in the assay with DU-145 prostate was above 33.3 µM throughout.

Regarding `COc1ccc(/C=C/c2cnc3ccccc3n2)cc1OC`, the TGI with SR leukemia, in the assay with ACHN renal, with BT-549 breast, in the assay with IGROV1 ovarian, with 786-0 renal and in the assay on NCI/ADR-RES ovarian was above 100 µM throughout. The compound further yielded a TGI with DU-145 prostate above 100 µM.

With `O=c1oc2cc(OS(=O)(=O)c3ccccc3)ccc2c2c1CCCCC2`, the GI50 was 3.01 µM in the assay on SR leukemia; above 100 µM in the assay with ACHN renal; 5.44 µM in the assay with BT-549 breast; above 100 µM with SNB-19 CNS; above 100 µM in the assay with IGROV1 ovarian; 6.24 µM with 786-0 renal. Besides, the GI50 with NCI/ADR-RES ovarian was 4.53 µM; in the assay on DU-145 prostate it was above 100 µM. In addition, the TGI with SR leukemia, in the assay with ACHN renal, in the assay with BT-549 breast, with SNB-19 CNS, with IGROV1 ovarian and with 786-0 renal was above 100 µM in each case. In addition, the TGI in the assay on NCI/ADR-RES ovarian and in the assay on DU-145 prostate was above 100 µM throughout.

`CC(C)(F)C[C@H](N[C@@H](c1ccc(-c2ccc(S(C)(=O)=O)cc2)cc1)C(F)(F)F)C(=O)NC1(C#N)CC1`: the GI50 with SR leukemia was 93.1 µM; in the assay with ACHN renal, > 55 µM and 39.5 µM; in the assay on BT-549 breast it was 8.65 µM and 28.2 µM; in the assay on SNB-19 CNS, 16.6 µM and 18.3 µM; in the assay on IGROV1 ovarian, 33.2 µM and 30.2 µM; in the assay on 786-0 renal, 9.02 µM and 26.2 µM. For the same compound, the GI50 was 34.1 µM in the assay on NCI/ADR-RES ovarian; 47.6 µM and 44.4 µM with DU-145 prostate. Also, the TGI in the assay on SR leukemia is above 100 µM; with ACHN renal, above 100 µM; with BT-549 breast, 55 µM and 82.8 µM; with SNB-19 CNS, 55 µM and 62.2 µM; in the assay with IGROV1 ovarian it was 55 µM and 91.2 µM; in the assay on 786-0 renal it was 55 µM and 87.8 µM. For the same compound, the TGI was 55 µM in the assay with NCI/ADR-RES ovarian; 55 µM and > 100 µM in the assay with DU-145 prostate.

Take `C=C1C(=O)O[C@H]2[C@H]1CC/C(COC(=O)/C=C/c1c[nH]c3ccccc13)=C\CC[C@@]1(C)O[C@@H]21`: the GI50 is 0.202 µM in the assay on ACHN renal; 0.175 µM in the assay with BT-549 breast; 0.225 µM in the assay on IGROV1 ovarian; 0.221 µM in the assay on 786-0 renal; 0.357 µM in the assay on NCI/ADR-RES ovarian; 0.393 µM in the assay on DU-145 prostate. Also, the TGI in the assay on ACHN renal was found to be 0.545 µM; in the assay with BT-549 breast it was 0.384 µM; in the assay on IGROV1 ovarian, 0.484 µM; with 786-0 renal it was 0.555 µM; in the assay on NCI/ADR-RES ovarian, 12.2 µM; with DU-145 prostate, 1.43 µM.

For the compound `O=C(O)c1cc2c(c3ccsc13)-c1ccccc1CC2`, the GI50 in the assay on ACHN renal was 36.6 µM; in the assay on BT-549 breast, 41.1 µM; in the assay on SNB-19 CNS, 47 µM; in the assay on IGROV1 ovarian, 33.9 µM; with 786-0 renal, 49.7 µM; with NCI/ADR-RES ovarian, 33.7 µM. Also, in the assay on DU-145 prostate, the GI50 is 44.2 µM. Also, the TGI in the assay on ACHN renal, with BT-549 breast, in the assay on SNB-19 CNS, with IGROV1 ovarian, in the assay with 786-0 renal and in the assay with NCI/ADR-RES ovarian was above 100 µM in each case. The same compound gave a TGI with DU-145 prostate above 100 µM.

As for `CS(=O)(=O)Nc1cc(-c2ccc3ncnc(Nc4cccc(Cl)c4F)c3c2)cnc1Cl`, the GI50 with ACHN renal was 4.09 µM; in the assay with BT-549 breast, 1.84 µM; in the assay on SNB-19 CNS, 2.83 µM; in the assay on IGROV1 ovarian, 1.02 µM; in the assay with 786-0 renal, 3.63 µM; in the assay on NCI/ADR-RES ovarian, 7.02 µM. Further, in the assay with DU-145 prostate, the GI50 was 3.69 µM. Besides, the TGI in the assay with ACHN renal was above 100 µM; in the assay with BT-549 breast, 7.65 µM; with SNB-19 CNS, 16.1 µM; in the assay on IGROV1 ovarian it was 4.34 µM; with 786-0 renal it was 38.5 µM; in the assay with NCI/ADR-RES ovarian, 31.8 µM. In the assay with DU-145 prostate, this compound displayed a TGI of 29 µM.

Turning to `Cc1ccc(/C=C2\CN(Cc3cn(CCNc4ccnc5cc(Cl)ccc45)nn3)C/C(=C\c3ccc(C)cc3)C2=O)cc1`, the GI50 is 1.78 µM with ACHN renal; 1.89 µM in the assay on BT-549 breast; 1.82 µM in the assay on SNB-19 CNS; 1.92 µM in the assay on IGROV1 ovarian; 1.85 µM in the assay with 786-0 renal; 2.32 µM with NCI/ADR-RES ovarian. The GI50 in the assay with DU-145 prostate is 1.76 µM. For the same compound, the TGI in the assay with ACHN renal was 3.25 µM; in the assay with BT-549 breast, 3.35 µM; in the assay with SNB-19 CNS, 3.43 µM; with IGROV1 ovarian, 3.73 µM; with 786-0 renal, 3.36 µM; with NCI/ADR-RES ovarian, 5.14 µM. In the assay with DU-145 prostate, this compound gave a TGI of 3.17 µM.

For the compound `N=C1C(c2nc(-c3ccc(Br)cc3)cs2)=C(O)CN1CC1CCCO1` (configuration not stated), the GI50 in the assay on SR leukemia, in the assay on ACHN renal, in the assay with BT-549 breast, with SNB-19 CNS, in the assay on 786-0 renal and with NCI/ADR-RES ovarian was above 100 µM in each case. For the same compound, the TGI in the assay on SR leukemia, in the assay on ACHN renal, in the assay on BT-549 breast, with SNB-19 CNS, in the assay on 786-0 renal and with NCI/ADR-RES ovarian was above 100 µM each time.
